Measured values taken from the NIST ThermoML archive (doi:10.1021/je9005618).

Experiment: xn = mol fraction of the nth substance listed
Settings: 101 kPa, Liquid

CCn1cc[n+](C)c1.O=S(=O)([O-])C(F)(F)F [1-ethyl-3-methylimidazolium trifluoromethanesulfonate] + CC(C)=O
Settings	mass density, 278.15 K [kg/m3]	mass density, 288.15 K [kg/m3]	mass density, 298.15 K [kg/m3]	mass density, 308.15 K [kg/m3]	mass density, 318.15 K [kg/m3]	speed of sound, 278.15 K [m/s]	speed of sound, 288.15 K [m/s]	speed of sound, 298.15 K [m/s]	speed of sound, 308.15 K [m/s]	speed of sound, 318.15 K [m/s]
x1 = 0.05	887.53	876.86	866.08	855.21	844.23	1280.3	1233.3	1191.1	1149.9	1109.3
x1 = 0.0999	953.96	943.44	932.87	922.28	911.64	1299.7	1253.5	1214.3	1176	1138.2
x1 = 0.1501	1010.97	1000.75	990.52	980.27	969.97	1313.5	1273.1	1236.6	1200.8	1165.4
x1 = 0.2004	1060.17	1050.21	1040.29	1030.37	1020.44	1327.8	1291.8	1257.5	1223.7	1190.4
x1 = 0.2988	1138.02	1128.31	1118.66	1109.04	1099.45	1356.4	1324.7	1293.5	1262.9	1232.8
x1 = 0.4007	1201.1	1191.78	1182.49	1173.23	1164.02	1382.4	1353	1324.3	1296.1	1268.4
x1 = 0.5006	1250.85	1241.69	1232.59	1223.54	1214.55	1404.5	1376.7	1349.7	1323	1297.1
x1 = 0.6007	1291.81	1282.81	1273.89	1265.02	1256.22	1423.5	1397.2	1371.6	1346.5	1322
x1 = 0.7014	1326.9	1318.05	1309.28	1300.58	1291.94	1441	1415.8	1391.3	1367.3	1343.8
x1 = 0.7998	1354.5	1345.77	1337.12	1328.53	1320.01	1455.6	1430.9	1407	1383.7	1361
x1 = 0.8435	1365.96	1357.29	1348.69	1340.15	1331.68	1462.5	1437.8	1414.3	1391.2	1368.7
x1 = 0.9006	1379.4	1370.81	1362.28	1353.81	1345.41	1469.4	1445.7	1422.5	1399.9	1377.7
x1 = 0.9489	–	–	–	–	1356.74	–	–	–	–	1384.7
x1 = 0.9501	1390.54	1382	1373.52	1365.09	–	1475.9	1452.1	1429.1	1406.7	–

CCn1cc[n+](C)c1.O=S(=O)([O-])C(F)(F)F [1-ethyl-3-methylimidazolium trifluoromethanesulfonate] + CCOC(C)=O
Settings	mass density [kg/m3]	speed of sound [m/s]
278.15 K, x1 = 0.0501	967.32	1238
278.15 K, x1 = 0.1003	1011.38	1249
278.15 K, x1 = 0.1502	1051.15	1263.8
278.15 K, x1 = 0.2004	1087.57	1280.5
278.15 K, x1 = 0.3002	1150.92	1313.9
278.15 K, x1 = 0.4002	1203.84	1343.7
278.15 K, x1 = 0.5002	1248.95	1371.2
278.15 K, x1 = 0.6009	1288.17	1397
278.15 K, x1 = 0.6999	1321.89	1420.5
278.15 K, x1 = 0.8006	1351.91	1442.8
278.15 K, x1 = 0.8492	1365.02	1453
278.15 K, x1 = 0.9008	1378.11	1463.2
278.15 K, x1 = 0.9501	1389.89	1472.6
288.15 K, x1 = 0.0501	955.66	1193.7
288.15 K, x1 = 0.1003	999.99	1206.1
288.15 K, x1 = 0.1502	1040.09	1222.8
288.15 K, x1 = 0.2004	1076.84	1241.5
288.15 K, x1 = 0.3002	1140.7	1278.8
288.15 K, x1 = 0.4002	1194.03	1311.7
288.15 K, x1 = 0.5002	1239.47	1341.6
288.15 K, x1 = 0.6009	1278.96	1369.4
288.15 K, x1 = 0.6999	1312.9	1394
288.15 K, x1 = 0.8006	1343.1	1417.9
288.15 K, x1 = 0.8492	1356.29	1428.6
288.15 K, x1 = 0.9008	1369.47	1439.3
288.15 K, x1 = 0.9501	1381.32	1449
298.15 K, x1 = 0.0501	943.87	1150
298.15 K, x1 = 0.1003	988.52	1163.9
298.15 K, x1 = 0.1502	1028.97	1182.5
298.15 K, x1 = 0.2004	1066.05	1203
298.15 K, x1 = 0.3002	1130.49	1244.2
298.15 K, x1 = 0.4002	1184.26	1280.4
298.15 K, x1 = 0.5002	1230.04	1312.7
298.15 K, x1 = 0.6009	1269.8	1342.4
298.15 K, x1 = 0.6999	1303.96	1369
298.15 K, x1 = 0.8006	1334.35	1393.7
298.15 K, x1 = 0.8492	1347.63	1404.8
298.15 K, x1 = 0.9008	1360.89	1416
298.15 K, x1 = 0.9501	1372.81	1426
308.15 K, x1 = 0.0501	931.96	1106.8
308.15 K, x1 = 0.1003	976.94	1121.8
308.15 K, x1 = 0.1502	1017.77	1142.2
308.15 K, x1 = 0.2004	1055.22	1165.1
308.15 K, x1 = 0.3002	1120.28	1210.2
308.15 K, x1 = 0.4002	1174.52	1249.5
308.15 K, x1 = 0.5002	1220.67	1284.4
308.15 K, x1 = 0.6009	1260.71	1316
308.15 K, x1 = 0.6999	1295.11	1344.2
308.15 K, x1 = 0.8006	1325.68	1370
308.15 K, x1 = 0.8492	1339.04	1381.6
308.15 K, x1 = 0.9008	1352.38	1393.2
308.15 K, x1 = 0.9501	1364.37	1403.6
318.15 K, x1 = 0.0501	919.88	1063.9
318.15 K, x1 = 0.1003	965.24	1080.1
318.15 K, x1 = 0.1502	1006.48	1102.3
318.15 K, x1 = 0.2004	1044.34	1127.3
318.15 K, x1 = 0.3002	1110.07	1176.5
318.15 K, x1 = 0.4002	1164.82	1219
318.15 K, x1 = 0.5002	1211.35	1256.6
318.15 K, x1 = 0.6009	1251.69	1290.1
318.15 K, x1 = 0.6999	1286.31	1319.8
318.15 K, x1 = 0.8006	1317.07	1346.8
318.15 K, x1 = 0.8492	1330.51	1358.8
318.15 K, x1 = 0.9008	1343.92	1370.8
318.15 K, x1 = 0.9501	1355.98	1381.6
328.15 K, x1 = 0.0501	907.62	1021.3
328.15 K, x1 = 0.1003	953.35	1039.2
328.15 K, x1 = 0.1502	995.07	1062.7
328.15 K, x1 = 0.2004	1033.39	1090
328.15 K, x1 = 0.3002	1099.87	1143.3
328.15 K, x1 = 0.4002	1155.15	1189.3
328.15 K, x1 = 0.5002	1202.08	1229.4
328.15 K, x1 = 0.6009	1242.72	1264.9
328.15 K, x1 = 0.6999	1277.58	1296
328.15 K, x1 = 0.8006	1308.52	1324.1
328.15 K, x1 = 0.8492	1322.04	1336.5
328.15 K, x1 = 0.9008	1335.52	1348.9
328.15 K, x1 = 0.9501	1347.65	1360.1

CCn1cc[n+](C)c1.O=S(=O)([O-])C(F)(F)F [1-ethyl-3-methylimidazolium trifluoromethanesulfonate] + COC(C)=O
Settings	mass density, 278.15 K [kg/m3]	mass density, 288.15 K [kg/m3]	mass density, 298.15 K [kg/m3]	mass density, 308.15 K [kg/m3]	mass density, 318.15 K [kg/m3]	speed of sound, 278.15 K [m/s]	speed of sound, 288.15 K [m/s]	speed of sound, 298.15 K [m/s]	speed of sound, 308.15 K [m/s]	speed of sound, 318.15 K [m/s]
x1 = 0.0502	1010.1	997.8	985.37	972.78	960.03	1259.8	1215.5	1171.7	1128.2	1084.8
x1 = 0.1006	1058.3	1046.52	1034.65	1022.69	1010.6	1278.4	1236.5	1195.1	1153.8	1112.8
x1 = 0.1501	1099.41	1088.09	1076.72	1065.29	1053.78	1298.1	1258.5	1219.4	1180.5	1141.9
x1 = 0.2001	1135.42	1124.48	1113.53	1102.55	1091.53	1316.6	1279.2	1242.4	1205.9	1169.7
x1 = 0.3003	1196.62	1186.31	1176.03	1165.76	1155.5	1350.2	1316.6	1283.5	1250.8	1218.7
x1 = 0.3999	1243.17	1233.3	1223.49	1213.71	1203.97	1376.9	1346	1315.8	1285.9	1256.7
x1 = 0.4997	1281.71	1272.18	1262.72	1253.32	1243.97	1400	1371.2	1343	1315.5	1288.5
x1 = 0.6	1313.96	1304.71	1295.53	1286.43	1277.38	1420.4	1393.3	1366.8	1340.9	1315.6
x1 = 0.7	1341.07	1332.05	1323.1	1314.23	1305.42	1438.5	1412.7	1387.6	1362.9	1338.9
x1 = 0.7986	1363.97	1355.14	1346.39	1337.7	1329.08	1454.4	1429.7	1405.6	1382	1358.9
x1 = 0.8509	1374.9	1366.17	1357.51	1348.91	1340.38	1462.2	1438	1414.4	1391.2	1368.6
x1 = 0.9008	1384.25	1375.61	1367.03	1358.51	1350.04	1469.1	1445.3	1422	1399.2	1377
x1 = 0.9504	1393.09	1384.52	1376.02	1367.58	1359.19	1475.6	1452	1429.1	1406.7	1384.8
